Test results as given in ChEMBL document CHEMBL5712891, “Inhibition of BET bromodomain-dependent XIAP and FLIP expression sensitizes KRAS-mutated NSCLC to pro-apoptotic agents” (Cell Death Dis, 2016).
The source made the active and inactive calls. No cut-off for these calls is given here.

Experiments:
A549 [1] = assay: Induction of apoptosis in human A549 cells assessed as necrotic cells at 0.5 uM for 24 hrs by annexin V-PI staining based flow cytometric analysis (reference value: 0.9%); assay type: functional
NCI-H460 [2] = assay: Induction of apoptosis in human NCI-H460 cells assessed as early apoptotic cells at 0.5 uM for 24 hrs by annexin V-PI staining based flow cytometric analysis (reference value: 0.3%); assay type: functional
NCI-H460 [3] = assay: Induction of apoptosis in human NCI-H460 cells assessed as necrotic cells at 0.5 uM for 24 hrs by annexin V-PI staining based flow cytometric analysis (reference value: 3.2%); assay type: functional
DV-90 [4] = assay: Induction of apoptosis in human DV-90 cells assessed as viable cells at 0.5 uM for 48 hrs by annexin V-PI staining based flow cytometric analysis (reference value: 81.9%); conditions: DV-90, 48 h
DV-90 [5] = assay: Induction of cell cycle arrest in human DV-90 cells assessed as accumulation of cells at G2/M phase at 1 uM for 24 hrs by Click-iT EdU Alexa Fluor 647 flow cytometric assay kit analysis (reference value: 25%); assay type: functional
NCI-H1373 [6] = assay: Induction of cell cycle arrest in human NCI-H1373 cells assessed as accumulation of cells at G0/G1 phase at 0.1 uM for 24 hrs by Click-iT EdU Alexa Fluor 647 flow cytometric assay kit analysis (reference value: 45%); assay type: functional
NCI-H1373 [7] = assay: Induction of cell cycle arrest in human NCI-H1373 cells assessed as accumulation of cells at G0/G1 phase at 0.25 uM for 24 hrs by Click-iT EdU Alexa Fluor 647 flow cytometric assay kit analysis (reference value: 45%); assay type: functional
NCI-H1373 [8] = assay: Induction of cell cycle arrest in human NCI-H1373 cells assessed as accumulation of cells at G0/G1 phase at 1 uM for 24 hrs by Click-iT EdU Alexa Fluor 647 flow cytometric assay kit analysis (reference value: 48%); assay type: functional
NCI-H460 [9] = assay: Induction of cell cycle arrest in human NCI-H460 cells assessed as accumulation of cells at G0/G1 phase at 0.1 uM for 24 hrs by Click-iT EdU Alexa Fluor 647 flow cytometric assay kit analysis (reference value: 45%); assay type: functional
NCI-H460 [10] = assay: Induction of cell cycle arrest in human NCI-H460 cells assessed as accumulation of cells at S phase at 0.5 uM for 24 hrs by Click-iT EdU Alexa Fluor 647 flow cytometric assay kit analysis (reference value: 54%); assay type: functional
A549 [11] = assay: Induction of cell cycle arrest in human A549 cells assessed as accumulation of cells at G2/M phase at 0.5 uM for 24 hrs by Click-iT EdU Alexa Fluor 647 flow cytometric assay kit analysis (reference value: 3%); assay type: functional
DV-90 [12] = assay: Induction of cell cycle arrest in human DV-90 cells assessed as accumulation of cells at G2/M phase at 0.5 uM for 24 hrs by Click-iT EdU Alexa Fluor 647 flow cytometric assay kit analysis (reference value: 24%); assay type: functional
NCI-H1373 [13] = assay: Induction of cell cycle arrest in human NCI-H1373 cells assessed as accumulation of cells at G2/M phase at 1 uM for 24 hrs by Click-iT EdU Alexa Fluor 647 flow cytometric assay kit analysis (reference value: 13%); assay type: functional
NCI-H1373 [14] = assay: Induction of cell cycle arrest in human NCI-H1373 cells assessed as accumulation of cells at G0/G1 phase at 0.5 uM for 24 hrs by Click-iT EdU Alexa Fluor 647 flow cytometric assay kit analysis (reference value: 40%); assay type: functional
NCI-H1373 [15] = assay: Induction of cell cycle arrest in human NCI-H1373 cells assessed as accumulation of cells at G0/G1 phase at 0.25 uM for 24 hrs by Click-iT EdU Alexa Fluor 647 flow cytometric assay kit analysis (reference value: 40%); assay type: functional
NCI-H1373 [16] = assay: Induction of cell cycle arrest in human NCI-H1373 cells assessed as accumulation of cells at G0/G1 phase at 0.1 uM for 24 hrs by Click-iT EdU Alexa Fluor 647 flow cytometric assay kit analysis (reference value: 40%); assay type: functional
A549 [17] = assay: Induction of apoptosis in human A549 cells assessed as necrotic cells at 2.5 uM for 24 hrs by annexin V-PI staining based flow cytometric analysis (reference value: 1.3%); assay type: functional
NCI-H1373 [18] = assay: Induction of apoptosis in human NCI-H1373 cells assessed as viable cells at 0.5 uM for 24 hrs by annexin V-PI staining based flow cytometric analysis (reference value: 77.7%); assay type: functional; conditions: read-out: Activity
NCI-H460 [19] = assay: Induction of apoptosis in human NCI-H460 cells assessed as late apoptotic cells at 0.5 uM for 24 hrs by annexin V-PI staining based flow cytometric analysis (reference value: 3.0%); assay type: functional
NCI-H1373 [20] = assay: Downregulation of c-MYC protein level in human NCI-H1373 cells upto 24 hrs by Western blot analysis; assay type: functional, cell-based; conditions: dose 100-5000 nM
NCI-H441 [21] = assay: Downregulation of c-MYC mRNA expression level in human NCI-H441 cells at 0.1 to 1 uM for 24 hrs by qRT-PCR analysis; assay type: functional, cell-based; conditions: dose 0.1-1 µM
NCI-H460 [22] = assay: Downregulation of c-MYC mRNA expression level in human NCI-H460 cells at 0.1 to 1 uM for 24 hrs by qRT-PCR analysis; assay type: functional, cell-based; conditions: dose 0.1-1 µM
NCI-H1373 [23] = assay: Downregulation of c-MYC level SCID mouse tumor tissue xenografted with human NCI-H1373 cells at 50 mg/kg, ip for 24 hrs by Western blot analysis; assay type: functional, organism-based; conditions: Neoplasm
DV-90 [24] = assay: Downregulation of FLIP mRNA expression level in human DV-90 cells at 0.1 to 1 uM for 24 hrs by qRT-PCR analysis; assay type: functional, cell-based; conditions: dose 0.1-1 µM
NCI-H441 [25] = assay: Downregulation of FLIP mRNA expression level in human NCI-H441 cells at 0.1 to 1 uM for 24 hrs by qRT-PCR analysis; assay type: functional, cell-based; conditions: dose 0.1-1 µM
NCI-H2347 = assay: Downregulation of FLIP mRNA expression level in human NCI-H2347 cells at 0.1 to 1 uM for 24 hrs by qRT-PCR analysis; assay type: functional, cell-based; conditions: dose 0.1-1 µM
SK-LU-1 = assay: Downregulation of XIAP protein expression level in human SK-LU-1 cells at 1 uM for 24 hrs by […] analysis; assay type: functional, cell-based
NCI-H358 = assay: Downregulation of c-MYC protein expression level in human NCI-H358 cells at 1 uM for 24 hrs by […] analysis; assay type: functional, cell-based
NCI-H1373 [26] = assay: Induction of TRAIL dependent apoptosis in human NCI-H1373 cells assessed as PARP cleavage by Western blot analysis; assay type: functional, cell-based
A549 [27] = assay: Induction of TRAIL dependent apoptosis in human A549 cells by annexin V-PI staining based flow cytometric analysis; assay type: functional, cell-based
A549 [28] = assay: Induction of apoptosis in human A549 cells assessed as viable cells at 1 uM by annexin V-PI based flow cytometric analysis (reference value: 95.7%); assay type: functional; conditions: read-out: Activity
A549 [29] = assay: Induction of apoptosis in human A549 cells assessed as late apoptotic cells at 1 uM by annexin V-PI based flow cytometric analysis (reference value: 2.5%); assay type: functional
A549 [30] = assay: Induction of apoptosis in human A549 cells assessed as necrotic cells at 1 uM in presence of cisplatin by annexin V-PI based flow cytometric analysis (reference value: 1.6%); assay type: functional

Cc1sc2c(c1C)C(c1ccc(Cl)cc1)=N[C@@H](CC(=O)Nc1ccc(O)cc1)c1nnc(C)n1-2 [BIRABRESIB]
Activity (A549 [1]): 0.7%
Activity (NCI-H460 [2]): 0.2%
Activity (NCI-H460 [3]): 4.7%
viability at 0.5 µM (DV-90 [4]): 57.6%

CCNC(=O)C[C@@H]1N=C(c2ccc(Cl)cc2)c2cc(OC)ccc2-n2c(C)nnc21 [MOLIBRESIB]
Activity (DV-90 [5]): 27%
Activity (NCI-H1373 [6]): 46%
Activity (NCI-H1373 [7]): 49%
Activity (NCI-H1373 [8]): 76%
Activity (NCI-H460 [9]): 45%
Activity (NCI-H460 [10]): 46%

Cc1sc2c(c1C)C(c1ccc(Cl)cc1)=N[C@@H](CC(=O)OC(C)(C)C)c1nnc(C)n1-2
Activity (A549 [11]): 3%
Activity (DV-90 [12]): 30%
Activity (NCI-H1373 [13]): 21%
Activity (NCI-H1373 [14]): 63%
Activity (NCI-H1373 [15]): 60%
Activity (NCI-H1373 [16]): 44%
Activity (A549 [17]): 0.9%
viability at 0.5 µM (NCI-H1373 [18]): 64.3%
Activity (NCI-H460 [19]): 4.5%
Activity (NCI-H1373 [20]): Dose-Dependent Effect
Activity (NCI-H441 [21]): Active
Activity (NCI-H460 [22]): Active
Activity (NCI-H1373 [23]): Active
Activity (DV-90 [24]): Active
Activity (NCI-H441 [25]): Active
Activity (NCI-H2347): Active
Activity (SK-LU-1): Active
Activity (NCI-H358): Active
Activity (NCI-H1373 [26]): Active
Activity (A549 [27]): Active
viability at 1 µM (A549 [28]): 98%
Activity (A549 [29]): 1.2%
Activity (A549 [30]): 10.3%
